Ring closure, isolated yield and IC50 data for 19 molecules are collected here from patent US8710178B2, “Macrocyclic cysteine protease inhibitors and compositions thereof” (Lincoln University, priority 2006, dated 2014).

Where two headings read alike, the source gives them in different places.

For series [1] the following is noted: rcm bond, 1,1,2-trichloroethane.
In the next series the target is T1, calpain II (m calpain) (Homo sapiens, UniProt P17655).
T1 sequence (P17655 1-700): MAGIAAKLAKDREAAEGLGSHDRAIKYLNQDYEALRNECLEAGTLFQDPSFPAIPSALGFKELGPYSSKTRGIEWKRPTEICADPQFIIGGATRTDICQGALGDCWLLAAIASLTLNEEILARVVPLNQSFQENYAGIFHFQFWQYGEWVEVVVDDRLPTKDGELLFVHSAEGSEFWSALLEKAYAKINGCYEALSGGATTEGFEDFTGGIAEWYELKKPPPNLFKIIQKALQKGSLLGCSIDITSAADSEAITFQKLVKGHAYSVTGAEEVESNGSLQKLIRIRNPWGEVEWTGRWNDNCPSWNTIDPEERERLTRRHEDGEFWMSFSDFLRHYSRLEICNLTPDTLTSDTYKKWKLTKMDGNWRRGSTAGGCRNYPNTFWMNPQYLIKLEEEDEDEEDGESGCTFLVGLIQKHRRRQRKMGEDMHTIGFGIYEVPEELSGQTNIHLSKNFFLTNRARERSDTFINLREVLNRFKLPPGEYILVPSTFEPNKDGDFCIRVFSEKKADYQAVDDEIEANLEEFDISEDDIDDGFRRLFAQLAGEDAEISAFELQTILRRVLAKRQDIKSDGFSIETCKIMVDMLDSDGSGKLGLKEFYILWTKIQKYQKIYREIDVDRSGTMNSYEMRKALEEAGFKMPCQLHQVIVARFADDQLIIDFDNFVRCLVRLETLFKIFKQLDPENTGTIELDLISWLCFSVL
T1 sequence (P04632 1-268 partner): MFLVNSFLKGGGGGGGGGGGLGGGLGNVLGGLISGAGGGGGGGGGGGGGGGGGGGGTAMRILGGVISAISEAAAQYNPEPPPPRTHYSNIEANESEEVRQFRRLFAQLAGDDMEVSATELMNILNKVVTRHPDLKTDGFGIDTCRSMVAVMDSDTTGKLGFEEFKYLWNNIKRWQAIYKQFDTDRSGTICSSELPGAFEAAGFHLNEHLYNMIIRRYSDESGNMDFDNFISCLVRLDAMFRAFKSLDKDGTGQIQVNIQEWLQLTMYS
Kind of series: BODIPY-casein fluorescence-based enzyme assay, calpain II / m-calpain. The following applies: BODIPY-casein substrate. It counts as biochemical.

The next series deals with cathepsin B (Homo sapiens, UniProt P07858). Kind of series: BODIPY-casein fluorescence-based enzyme assay, cathepsin B. It counts as biochemical. As to conditions: BODIPY-casein substrate.
The next series addresses T2, calpain I (μ calpain) (Homo sapiens, UniProt P07384).
T2 sequence (P07384 1-714): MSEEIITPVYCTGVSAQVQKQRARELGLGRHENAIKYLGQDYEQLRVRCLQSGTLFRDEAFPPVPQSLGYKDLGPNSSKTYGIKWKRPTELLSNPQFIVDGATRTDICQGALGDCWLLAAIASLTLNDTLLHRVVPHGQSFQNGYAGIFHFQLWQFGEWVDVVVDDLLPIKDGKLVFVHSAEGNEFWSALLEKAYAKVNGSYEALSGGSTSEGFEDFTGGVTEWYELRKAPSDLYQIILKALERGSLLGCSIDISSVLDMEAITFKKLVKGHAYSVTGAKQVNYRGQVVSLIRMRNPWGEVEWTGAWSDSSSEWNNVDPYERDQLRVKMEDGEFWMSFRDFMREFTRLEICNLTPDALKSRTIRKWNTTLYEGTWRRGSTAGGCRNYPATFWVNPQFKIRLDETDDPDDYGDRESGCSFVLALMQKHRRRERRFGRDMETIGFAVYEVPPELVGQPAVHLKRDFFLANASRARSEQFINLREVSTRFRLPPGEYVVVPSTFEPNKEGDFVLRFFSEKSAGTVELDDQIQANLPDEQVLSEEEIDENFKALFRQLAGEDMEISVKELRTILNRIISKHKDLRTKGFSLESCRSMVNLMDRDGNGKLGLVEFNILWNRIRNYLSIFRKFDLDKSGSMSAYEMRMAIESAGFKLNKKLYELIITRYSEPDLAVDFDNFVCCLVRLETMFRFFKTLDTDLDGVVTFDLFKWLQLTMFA
T2 sequence (P04632 1-268 partner): T1 sequence (P04632 1-268 partner)
Put plainly: BODIPY-casein fluorescence-based enzyme assay, calpain I. It counts as biochemical. As to conditions: BODIPY-casein substrate.

For another series, the target named is T3, papain (Carica papaya, UniProt P00784).
T3 sequence (P00784 134-345): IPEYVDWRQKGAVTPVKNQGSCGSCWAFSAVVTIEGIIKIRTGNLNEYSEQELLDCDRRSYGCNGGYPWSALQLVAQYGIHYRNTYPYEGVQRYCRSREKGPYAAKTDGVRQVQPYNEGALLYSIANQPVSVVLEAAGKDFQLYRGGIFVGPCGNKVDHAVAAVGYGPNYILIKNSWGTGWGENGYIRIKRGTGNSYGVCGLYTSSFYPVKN
Kind of series: BODIPY-casein fluorescence-based enzyme assay, papain. Type of series: biochemical. The following applies: BODIPY-casein substrate.

For another series, the target named is α-chymotrypsin (Bos taurus, UniProt P00766). Kind of series: BODIPY-casein fluorescence-based enzyme assay, α-chymotrypsin. It counts as biochemical. As to conditions: BODIPY-casein substrate.
The mark [2] stands for this setting: Table 3, read-out: IC50 against m-calpain.
Where [3] appears, read: Table 2, read-out: IC50 calpain II (m calpain).
Where [4] appears, read: 19-membered ring, Grubbs II (3 x 0.10 equiv), microwave, 10.0 mM.

Procedure for calpain II (m calpain): (§1) The inhibitors were assayed against several enzymes using a BODIPY-casein substrate in the fluorescence-based assay procedure of V. F. Thompson, S. Saldana, J. Cong and D. E. Goll, Anal. Biochem. 2000, 279, 170.
A number of the compounds were assayed against m-calpain using a BODIPY-casein substrate in the fluorescence-based assay procedure of V. F. Thompson, S. Saldana, J. Cong and D. E. Goll, Anal. Biochem. 2000, 279, 170.
Procedure for papain: as §1

For the molecule `COC(=O)[C@@H]1C/C=C/COc2ccc(cc2)C[C@H](NC(=O)OC(C)(C)C)C(=O)N[C@@H](C(C)C)C(=O)N1`, in series [1] (17-membered ring, Grubbs II, 10.0 mM), the ring closure, isolated yield worked out at 12%.
By IC50 is commonly meant the concentration at which inhibition is half-maximal. Turning to `CC(C)C[C@@H]1NC(=O)[C@@H](NC(=O)OCc2ccccc2)Cc2ccc(cc2)OCCCC[C@@H](CNC2CC2)NC1=O` [Compound 81, ((7S,10S,13S)-7-Cyclopropylaminomethyl-10-isobutyl-9,12-dioxo-2-oxa-8,11-diaza-bicyclo[13.2.2]nonadeca-1(18),15(19),16-trien-13-yl)-carbamic acid benzyl ester], the half-maximal inhibitory concentration (IC50) at calpain II (m calpain) (setting [2]) was more than 50 µM.
`CC(C)C[C@@H]1NC(=O)[C@@H](NC(=O)OCc2ccccc2)Cc2ccc(cc2)OCCCC[C@@H](C(O)C#N)NC1=O` (stereo partly drawn) [Compound 80, [7-(R,S)-(cyanohydroxymethyl)-10S-isobutyl-9,12-dioxo-2-oxa-8,11-diaza-bicyclo-[13.2.2]nonadeca-1(18),15(19),16-trien-13S-yl]carbamic acid benzyl ester]: the half-inhibitory concentration (IC50) was 8.9 µM on calpain II (m calpain) (setting [3]); 2.4 µM at cathepsin B; 35 µM against calpain I (μ calpain); 12 µM at papain; more than 50 µM against α-chymotrypsin.
As to `CC(C)[C@@H]1NC(=O)[C@@H](NC(=O)OCc2ccccc2)Cc2ccc(cc2)OCCCC[C@@H](C=O)NC1=O` [Compound 50], on calpain II (m calpain) (setting [2]), the IC50 was 0.04 µM.
For `CC(C)C[C@@H]1NC(=O)[C@@H](NC(=O)OCc2ccccc2)Cc2ccc(cc2)OCCCCC[C@@H](CO)NC1=O` [Compound 27], the IC50 is 1.1 µM on calpain II (m calpain) (setting [3]); 1.34 µM at calpain II (m calpain) (setting [2]); 1.1 µM against cathepsin B; 1.34 µM at calpain I (μ calpain); more than 50 µM against papain; more than 50 µM on α-chymotrypsin.
Take “(E/Z)-12S-tert-Butoxycarbonylamino-9S-isobutyl-8,11-dioxo-2-oxa-7,10-diazabicyclo[12.2.2]octadeca-1(17),4,14(18),15-tetraene-6S-carboxylic acid methyl ester”: in series [1] (16-membered ring, Grubbs II (3 x 0.10 equiv), microwave, 10.0 mM), the ring closure, isolated yield is 48%.
As for “(E/Z)-15S-tert-Butoxycarbonylamino-12S-isobutyl-11,14-dioxo-2,7-dioxa-10,13-diaza-bicyclo[15.2.2]heneicosa-1(20),4,17(21),18-tetraene-9R-carboxylic acid methyl ester”, in series [1] (setting [4]), the ring closure, isolated yield stood at 33%.
For `CC(C)C[C@@H]1NC(=O)[C@@H](NS(=O)(=O)c2ccc(F)cc2)Cc2ccc(cc2)OCCCC[C@@H](C=O)NC1=O` [Compound 17, 4-Fluoro-N-((7S,10S,13S)-7-formyl-10-isobutyl-9,12-dioxo-2-oxa-8,1′-diaza-bicyclo[13.2.2]-nonadeca-1(18),15(19),16-trien-13-yl)-benzenesulfonamide], the IC50 at calpain II (m calpain) (setting [2]) came out at 0.045 µM.
Consider `CC(C)[C@@H]1NC(=O)[C@@H](NC(=O)OCc2ccccc2)Cc2ccc(cc2)OCCCCSC[C@@H](C=O)NC1=O` [Compound 36], for which, on calpain II (m calpain) (setting [2]), the IC50 came out at 0.295 µM.
“(E/Z)-15S-tert-Butoxycarbonylamino-12S-isobutyl-11,14-dioxo-2-oxa-2-thia-10,13-diaza-bicyclo[15.2.2]heneicosa-1(20),4,17(21),18-tetraene-9R-carboxylic acid methyl ester”: in series [1] (setting [4]), the ring closure, isolated yield stood at 40%.
For the molecule `CC(C)[C@@H]1NC(=O)[C@@H](NC(=O)c2ccc[nH]2)Cc2ccc(cc2)OCCCC[C@@H](C=O)NC1=O` [Compound 52, 1H-Pyrrole-2-carboxylic acid ((7S,10S,13S)-7-formyl-10-isopropyl-9,12-dioxo-2-oxa-8,11-diaza-bicyclo[13.2.2]nonadeca-1(18),15(19),16-trien-13-yl)-amide], on calpain II (m calpain) (setting [2]), the half-maximal inhibitory concentration (IC50) stood at 0.69 µM.
The same measure, in the same setting: then `CC(C)[C@@H]1NC(=O)[C@@H](NS(C)(=O)=O)Cc2ccc(cc2)OCCCC[C@@H](C=O)NC1=O` [Compound 56, N-((7S,10S,13S)-7-Formyl-10-isopropyl-9,12-dioxo-2-oxa-8,11-diaza-bicyclo[13.2.2]nonadeca-1(18),15(19),16-trien-13-yl)-methanesulfonamide], with 0.95 µM.
The same measure, in the same setting: then `CC(C)[C@@H]1NC(=O)[C@@H](NS(=O)(=O)c2ccc(F)cc2)Cc2ccc(cc2)OCCC[C@@H](C=O)NC1=O` [Compound 69, 4-Fluoro-N-((6S,9S,12S)-6-formyl-9-isopropyl-8,11-dioxo-2-oxa-7,10-diaza-bicyclo[12.2.2]octadeca-1(17),14(18),15-trien-12-yl)-benzenesulfonamide], with 3.71 µM.
Still for that read-out and setting: then `CC(C)C[C@@H]1NC(=O)[C@@H](NS(=O)(=O)c2ccc(F)cc2)Cc2ccc(cc2)OCCCC[C@@H](CO)NC1=O` [Compound 16, 4-Fluoro-N-((7S,10S,13S)-7-hydroxymethyl-10-isobutyl-9,12-dioxo-2-oxa-8,11-diaza-bicyclo-[13.2.2]nonadeca-1(18),15(19),16-trien-13-yl)-benzenesulfonamide], with 0.93 µM; and `CC(C)[C@@H]1NC(=O)[C@@H](NS(=O)(=O)c2ccc(F)cc2)Cc2ccc(cc2)OCCCC[C@@H](C=O)NC1=O` [Compound 54, 4-Fluoro-N-((7S,10S,135)-7-formyl-10-isopropyl-9,12-dioxo-2-oxa-8,11-diaza-bicyclo[13.2.2]nonadeca-1(18),15(19),16-trien-13-yl)-benzenesulfonamide], with 0.28 µM.
As for “(E/Z)-(7S,10S,13S)-13-(4-Fluoro-benzenesulfonylamino)-10-isobutyl-9,12-dioxo-2-oxa-8,11-diaza-bicyclo[13.2.2]nonadeca-1(18),4,15(19),16-tetraene-7-carboxylic acid methyl ester”, in series [1] (17-membered ring, Grubbs II/Cy2BCl, 10.3 mM), the ring closure, isolated yield was found to be 63%.
“(E/Z)-(9S,12S,15S)-15-tert-Butoxycarbonylamino-12-isopropyl-11,14-dioxo-2,7-dioxa-10,13-diaza-bicyclo[15.2.2]henicosa-1(20),4,17(21),18-tetraene-9-carboxylic acid methyl ester” returned a ring closure, isolated yield in series [1] (19-membered ring, Grubbs II, 12.6 mM) of 23%.
“(E/Z)-(9R,12S,15S)-15-tert-Butoxycarbonylamino-12-isopropyl-11,14-dioxo-2-oxa-7-thia-10,13-diaza-bicyclo[15.2.2]henicosa-1(20),4,17(21),18-tetraene-9-carboxylic acid methyl ester”: the ring closure, isolated yield in series [1] (19-membered ring, Grubbs II, 17.3 mM) came out at 72%.
As to `CC(C)[C@@H]1NC(=O)[C@@H](NS(=O)(=O)c2ccc(F)cc2)Cc2ccc(cc2)OCCCCSC[C@@H](C=O)NC1=O` [Compound 58, 4-Fluoro-N-((9R,12S,15S)-9-formyl-12-isopropyl-11,14-dioxo-2-oxa-7-thia-10,13-diaza-bicyclo[15.2.2]henicosa-1(20),17(21),18-trien-15-yl)-benzenesulfonamide], the IC50 on calpain II (m calpain) (setting [2]) worked out at 2.4 µM.
